# Like-named read-outs stand apart in the source and are kept apart here.
# Columns and labels:
# [1] = tested on: plasma protein, mainly albumin; conditions: cited from earlier work
# [2] = cited from earlier work
# [3] = Pharmacokinetic study in Wistar rats, plasma levels by HPLC/MS, non-compartmental analysis; type: in vivo; conditions: for bioavailability: read-out: absolute bioavailability (F); for AUC(0-t): read-out: AUC0–24; for Cpmax: rat plasma
# Method: The column is ACE C8 (50 ∗ 4.6) mm, particle size 5 μm (Supercell), and AP 13C as the internal standard. […] The chromatographic conditions of Ap and ESO analysis were as follows: The HPLC system: […] Detector: API 4000, Applied Biosystems, MDS SCIEX; computer system: […] Data Management Software: […] Column: ACE C8, (50 ∗ 4.6) mm, particle size 5 μm; Flow Rate: 650 μL/min; Injection Volume: 1 μL; […] Expected retention time: […] The ethical committee approved the study protocol of the High Research Council, Faculty of Pharmacy of the […] University, and the study was carried out in the animal house of the university. […] They were divided into five groups, each of 6 rats. Group 1 ([…].V sterile solution (5 mg/kg) in D.W containing 5% ethanol. Group 2 (G2) was given AP as sterile I.V solution (125 mcg/kg) in D.W containing 10% ethanol. […] All rats fasted overnight with access only to water. […] Blood samples were drawn into an EDTA tube and immediately centrifuged at 14,000 rpm for 7 min. Plasma was obtained and placed into a labeled Eppendorf tube and stored at […] until analysis. After constructing the Cp vs. t profile by plotting the average plasma concentration of each drug in ng/mL vs. time in hours, the pharmacokinetics was performed using Non-Compartmental Analysis (NCA) using WinNonlin® (Version 8.1).
# P-gp = tested on: P-gp; set-up: method as in PMID 11770010; conditions: cited from earlier work
# [4] = IV (ESO 5 mg/kg; AP 125 mcg/kg)
# [5] = Wistar, rat, plasma, iv, IV (ESO 5 mg/kg; AP 125 mcg/kg)
# [6] = Wistar, rat, plasma, iv, IV (ESO 5 mg/kg; AP 125 mcg/kg), NCA, read-out: Kel (app) (converted)
# [7] = Wistar, rat, plasma, iv, read-out: Vd
# [8] = Wistar, rat, plasma, po, ESO 5 mg/kg + AP 250 mcg/kg in combination
# [9] = Wistar, rat, plasma, po, ESO 5 mg/kg + AP 250 mcg/kg in combination, NCA, read-out: Kel (app) (converted)
# [10] = Wistar, rat, plasma, po, given alone (ESO 5 mg/kg; AP 250 mcg/kg)
# [11] = Wistar, rat, plasma, po, given alone (ESO 5 mg/kg; AP 250 mcg/kg), NCA, read-out: Kel (app) (converted)
# [12] = oral, ESO 5 mg/kg + AP 250 mcg/kg in combination
# [13] = oral, given alone (ESO 5 mg/kg; AP 250 mcg/kg)
SMILES,"AUMC0–24 [3, 4]","AUMC0–∞ [3, 4]","clearance ([3]; Wistar, rat, plasma, iv)","AUC(0-inf) [3, 5]","MRT inf [3, 5]","half-life [3, 5]","k el [3, 6]","AUC(0-t) [3, 5]","Vd [3, 7]","AUC(0-inf) [3, 8]","MRT inf [3, 8]","Tmax [3, 8]","half-life [3, 8]","k el [3, 9]","AUC(0-t) [3, 8]","AUC(0-inf) [3, 10]","MRT inf [3, 10]","Tmax [3, 10]","k el [3, 11]","AUC(0-t) [3, 10]",also measured
"COc1ccc(-n2nc(C(N)=O)c3c2C(=O)N(c2ccc(N4CCCCC4=O)cc2)CC3)cc1 [AP, 1-(4-methoxyphenyl)-7-oxo-6-[4-(2-oxopiperidin-1-yl)phenyl]-4,5-dihydropyrazolo [3,4-c]pyridine-3-carboxamide]",8164.8 ± 78.3 ng.h^2/mL,28975.07 ± 2364 ng.h^2/mL,0.3 ± 0.08 mL/min,1340 ± 120 ng·h/mL,21.5 ± 1.5 h,14.9 ± 1.8 h,1.29e-05 s⁻¹,894 ± 80.6 ng·h/mL,0.4 ± 0.09 L,1560 ± 78 ng·h/mL,14 ± 0.21 h,1 ± 0.32 h,9.6 ± 0.144 h,1.99e-05 s⁻¹,1270 ± 63.3 ng·h/mL,1540 ± 54 ng·h/mL,24 ± 0.24 h,6 ± 1.09 h,1.17e-05 s⁻¹,959 ± 38.4 ng·h/mL,"bound to plasma protein ([1]; mainly albumin ref 14): 87–90%; excreted in the urine as unchanged drug [2]: 25%; excreted into the bile as unchanged drug [2]: 56%; share of total absorption in the distal part and the descending colon [2]: 55%; volume of distribution ([2]; mainly extracellular fluids ref 14): 21 L; bioavailability ([2]; no noticeable effect of food ref 12): around 50%; bioavailability ([3]; Wistar, rat, plasma, 250 mcg/kg, oral vs IV, drug given alone, F=AUCoral/AUCiv∙Doseiv/Doseoral): 42 ± 1%; half-life [3, 10]: 16.6 ± 0.99 h; AUMC0–24 [3, 12]: 10320.5 ± 516 ng.h^2/mL; AUMC0–∞ [3, 12]: 21710.2 ± 215.1 ng.h^2/mL; Vd [3, 12]: 2.1 ± 0.015 L; Cpmax [3, 12]: 98.6 ± 12.6 ng/mL; AUMC0–24 [3, 13]: 9517 ± 475.8 ng.h^2/mL; AUMC0–∞ [3, 13]: 37101 ± 742.2 ng.h^2/mL; Cl [3, 13]: 0.54 ± 0.03 mL/min; Vd [3, 13]: 0.779 ± 0.032 L; Cpmax [3, 13]: 57.2 ± 5.3 ng/mL"
"COc1ccc2[nH]c([S+]([O-])Cc3ncc(C)c(OC)c3C)nc2c1 (stereo not shown) [ESO, 5-methoxy-2-{[(4-methoxy-3,5-dimethylpyridin-2-yl)methyl]sulfinyl}-1H-benzimidazole]",35805 ± 826 ng.h^2/mL,40322.6 ± 1256 ng.h^2/mL,3.7 ± 0.7 mL/min,5450 ± 118 ng·h/mL,7.4 ± 0.95 h,4.8 ± 0.8 h,3.94e-05 s⁻¹,5120 ± 120 ng·h/mL,1.5 ± 0.15 L,3410 ± 45.9 ng·h/mL,8.6 ± 0.13 h,4 ± 0.55 h,5.9 ± 0.236 h,3.22e-05 s⁻¹,3250 ± 160 ng·h/mL,4510 ± 226 ng·h/mL,6.4 ± 0.128 h,2 ± 0.156 h,4.08e-05 s⁻¹,4380 ± 218 ng·h/mL,"P-gp inhibitor strength (P-gp): moderate to potent P-gp inhibitor; plasma protein binding ([1]; mainly to albumin ref 6, 7): about 97%; volume of distribution ([2]; adults ref 6, 7): 16 to 18 L; bioavailability ([2]; after 20 or 40 mg delayed-release tablets ref 6, 7): about 90%; half-life ([3]; Wistar, rat, in vivo, po): 4.7 ± 0.14 h; bioavailability ([3]; Wistar, rat, plasma, oral): 62 ± 1.5%; k el ([3]; Wistar, rat, plasma, po, 5 mg/kg, oral ESO 5 mg/kg alone, read-out: elimination rate constant calculated from late concentrations of the plasma level time profile (linear model) (converted)): 4.53e-05 s⁻¹; decrease of AUC when given with AP ([3]; oral ESO 5 mg/kg with AP 250 mcg/kg vs alone): 25%; extrapolated area to infinity as share of the total area ([3]; oral ESO alone): about 13%; extrapolated area to infinity as share of the total area ([3]; oral ESO in combination with AP): 20%; AUMC0–24 [3, 12]: 23544.9 ± 309 ng.h^2/mL; AUMC0–∞ [3, 12]: 29430.9 ± 1473 ng.h^2/mL; Cl [3, 12]: 4.8 ± 0.14 mL/min; Vd [3, 12]: 2.4 ± 0.09 L; Cpmax [3, 12]: 387.9 ± 23.5 ng/mL; AUMC0–24 [3, 13]: 24658.6 ± 206.5 ng.h^2/mL; AUMC0–∞ [3, 13]: 29094.1 ± 1454.7 ng.h^2/mL; Vd [3, 13]: 1.41 ± 0.07 L; Cpmax [3, 13]: 695.9 ± 25.8 ng/mL"

# From article PMC9586895, “Esomeprazole and apixaban pharmacokinetic interactions in healthy rats” (Heliyon, 2022)
